Test results from patent US20230022796A1 (Merck Patent GmbH, priority 2019, published 2023).

What was measured:
Assay type in all cases: cell-based, Chinese hamster
[1] = system: CHO cell line producing mAb3; experiment: Glycosylation profile (UPLC-MS of released glycans) of mAb3 from fed-batch
Method: (§1) Glycosylation patterns were analyzed by ultra-performance liquid chromatography coupled to a mass spectrometer (UPLC-MS). The purified antibody was denaturated and the glycans were released from the antibody by digestion with peptide N-glycosidase F (PNGase F) followed by labeling the glycans with the GlycoWorks™ RapiFluor-MS™ N-Glycan Kit according to the manufacturer protocol. For the analysis, an UPLC glycan column (2.1×150 mm) that separated the glycans according to their […] was used. The chromatography was performed at 45° C. using 50 mM ammonium formate (A), pH 4.4 solution and an acetonitrile (B) gradient. In detail, at the beginning the ratio of A:B was 20:80 (0 min) and changed to 27:73 at 3 min and 37:63 at 35 min at a flow rate of 0.5 ml/min. From 36.5 min to 39.5 min only A was used as mobile phase and the flow rate was reduced to 0.2 ml/min. Subsequently, the ratio was changed to 20% A:80% B and the flowrate was increased to 0.5 ml/min at 43.1 min until the end of the process at 55 min. The detection was performed by a fluorescence detector with an excitation wavelength of 265 nm and an emission wavelength of 425 nm. The identification of the glycan structures was performed by MS using positive electro spray ionization (ESI), which was calibrated every 30 s with a standard.
(§2) Four different clones of Chinese hamster ovary (CHO) cells expressing three different monoclonal antibodies (mAb) and a fusion protein were tested. Cells were cultivated in spin tubes between 14 and 20 days at 37° C., 5% CO2, and 80% humidity. As starting cell density, 3×10^5 cells/mL in 30 mL Cellvento®4CHO media (pH 7.0±0.1) was used for clone 1 and 2 producing mAb1 and mAb2, respectively (Cellvento® Platform). Cells were cultivated at an agitation of 320 rpm and were fed on day 3, 5, 10, 12 and 14 with 3% volume of Cellvento® 4Feed (v/v) and on day 7 with 6% (v/v) of the feed. Clone 3 and 4 producing mAb3 and a fusion protein were inoculated at the same cell density in 30 mL Ex-Cell® Advanced Media (pH 7.2±0.1) while agitation was set to 230 rpm (Ex-Cell® Platform). Clones 3 and 4 were fed with […] Advanced Feed (v/v) on day 3, 5, 7, 10, 12, 14 and 17. […] The pH of all Cellvento® feeds was adjusted to 7.0±0.1 and Ex-Cell® Feeds were adjusted to 8.5±0.1. The glucose level was maintained above 4 g/L by adding a specific amount of a 400 g/L glucose stock solution on demand to up to 6 g/L during the week and up to 13 g/L over the weekend. Glucose and titer were detected in the supernatant with the bioprocess analyzer CEDEX Bio HT (Roche, Mannheim, Germany).
(§3) To investigate the glycosylation profile during the fed-batch experiment samples were centrifugated and antibodies and Fc-fusion proteins were purified from the cell culture supernatant using protein A PhyTips® (PhyNexus Inc, San Jose, Calif.). Glycosylation patterns were analyzed as described by ultra-performance liquid chromatography coupled to a mass spectrometer (UPLC-MS) using the GlycoWorks™ RapiFluor-MS™ N-Glycan Kit.
(§4) Glycosylation profile on day 12 was visualized since harvest of recombinant produced proteins on day 12 is common. Quantification of the glycans was obtained using the relative peak area of the fluorescence signal. Almost all peaks were assigned to glycan structures according to their mass. Unknown glycan structures and signals without mass detection were summarized as unknown species (not shown). Four different clones of Chinese hamster ovary (CHO) cells expressing three different monoclonal antibodies (mAb) and a fusion protein were tested. […] The known positive control achieved a […] level on day 12 by increasing the afucosylation to 78%. The same amount of afucosylation compared to the known fucose-analogue acetylated 2F-Fucose was only achieved by clone 3 expressing mAb3 leading to about […] on day 12 (FIG. 8 C). […]

[2] = system: CHO cell line producing mAb1; experiment: Glycosylation profile (UPLC-MS of released glycans) of mAb1 from fed-batch; details: for reduction of the fucosylation compared to the control: mAb1, same concentration of both additives
Method: as §1, §2, §3, §4

[3] = system: CHO cell line producing mAb2; experiment: Glycosylation profile (UPLC-MS of released glycans) of mAb2 from fed-batch; details: mAb2, 400 μM additive, day 12
Method: as §1, §2, §3
Glycosylation profile on day 12 was visualized since harvest of recombinant produced proteins on day 12 is common. Quantification of the glycans was obtained using the relative peak area of the fluorescence signal. Almost all peaks were assigned to glycan structures according to their mass. Unknown glycan structures and signals without mass detection were summarized as unknown species (not shown). […]

[4] = mAb3, 400 μM additive, day 12, listed as ThioFuc
[5] = mAb3, 800 μM additive, day 12, listed as ThioFuc

C[C@@H]1SC(O)[C@@H](O)[C@H](O)[C@@H]1O (some centres unmarked)
% Afucosylated ([1]; mAb3, 50 μM additive, day 5): 17.7% | % Fucosylated ([1]; mAb3, 50 μM additive, day 5): 81.4% | % fucose analogue (incorporated) ([1]; mAb3, 50 μM additive, day 5): 0.38% | % Afucosylated ([1]; mAb3, 50 μM additive, day 12): 16.0% | % Fucosylated ([1]; mAb3, 50 μM additive, day 12): 72.5% | % fucose analogue (incorporated) ([1]; mAb3, 50 μM additive, day 12): ~11% | % fucose analogue (incorporated) ([1]; mAb3, 50 μM additive, day 12, listed as ThioFuc): 10.7% | % Afucosylated ([1]; mAb3, 50 μM additive, day 14): 16.1% | % Fucosylated ([1]; mAb3, 50 μM additive, day 14): 69.9% | % fucose analogue (incorporated) ([1]; mAb3, 50 μM additive, day 14): 13.6% | % Afucosylated ([1]; mAb3, 200 μM additive, day 5): 22.1% | % Fucosylated ([1]; mAb3, 200 μM additive, day 5): 62.9% | % fucose analogue (incorporated) ([1]; mAb3, 200 μM additive, day 5): 14.5% | % Afucosylated ([1]; mAb3, 200 μM additive, day 12): 30.1% | % Fucosylated ([1]; mAb3, 200 μM additive, day 12): 33.3% | % fucose analogue (incorporated) ([1]; mAb3, 200 μM additive, day 12): ~36% | % fucose analogue (incorporated) ([1]; mAb3, 200 μM additive, day 12, listed as ThioFuc): 35.9% | % Afucosylated ([1]; mAb3, 200 μM additive, day 14): 32.1% | % Fucosylated ([1]; mAb3, 200 μM additive, day 14): 28.6% | % fucose analogue (incorporated) ([1]; mAb3, 200 μM additive, day 14): 39.1% | % Afucosylated ([1]; mAb3, 400 μM additive, day 5): 28.7% | % Fucosylated ([1]; mAb3, 400 μM additive, day 5): about 48% | % fucose analogue (incorporated) ([1]; mAb3, 400 μM additive, day 5): 26.5% | % Fucosylated ([1]; mAb3, 400 μM additive, day 5, listed as ThioFuc): 46.4% | fucosylation level ([1]; mAb3, 400 μM additive, day 7): about 34% | fucosylation level ([1]; mAb3, 400 μM additive, day 10): ~25% | % Fucosylated ([1]; mAb3, 400 μM additive, day 12): 21% | % Afucosylated [1, 4]: 34.8% | % Fucosylated [1, 4]: 20.9% | % fucose analogue (incorporated) [1, 4]: 44.1% | % Afucosylated ([1]; mAb3, 400 μM additive, day 14): 36.0% | % Fucosylated ([1]; mAb3, 400 μM additive, day 14): ~18% | % fucose analogue (incorporated) ([1]; mAb3, 400 μM additive, day 14): 46.2% | % Fucosylated ([1]; mAb3, 400 μM additive, day 14, listed as ThioFuc): 17.7% | % Afucosylated ([1]; mAb3, 800 μM additive, day 5): 32.3% | % Fucosylated ([1]; mAb3, 800 μM additive, day 5): 40.4% | % fucose analogue (incorporated) ([1]; mAb3, 800 μM additive, day 5): 31.7% | % Afucosylated ([1]; mAb3, 800 μM additive, day 12): about 36% | % Fucosylated ([1]; mAb3, 800 μM additive, day 12): about 15% | % fucose analogue (incorporated) ([1]; mAb3, 800 μM additive, day 12): about 48% | reduction of fucosylation compared to the control ([1]; mAb3, 800 μM additive, day 12): about 75% | % Afucosylated [1, 5]: 36.4% | % Fucosylated [1, 5]: 15.4% | % fucose analogue (incorporated) [1, 5]: 47.8% | % Afucosylated ([1]; mAb3, 800 μM additive, day 14): 38.0% | % Fucosylated ([1]; mAb3, 800 μM additive, day 14): 12.5% | % fucose analogue (incorporated) ([1]; mAb3, 800 μM additive, day 14): 49.3% | core-fucosylated glycans ([2]; mAb1, 400 μM additive, day 12): about 26% | reduction of the fucosylation compared to the control ([2]; day 7): 64% | reduction of the fucosylation compared to the control ([2]; day 10): 68% | reduction of the fucosylation compared to the control ([2]; day 12): 67% | afucosylation [3]: 60% | core-fucosylation [3]: 8%
